Measured values as given in patent publication US10316017B2, “COT modulators and methods of use thereof” (Gilead Sciences, Inc., priority 2015, dated 2019).

Tests used:
[1] = test system: TNFα production in LPS-stimulated human monocytes; assay: Cot Monocyte TNFα Cell Based Assay; conditions: Homo sapiens, Monocyte, TNFα in LPS-stimulated human monocytes; read-out: EC50 TNF
Outline: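 TNFα release quantified by two-antibody TR-FRET, normalised to unstimulated (0%) and LPS-stimulated (100%) wells. Cells got a 1 h compound exposure at 37° C in 0.5% DMSO before 4 h challenge with 50 pg/ml LPS, at 5,000 cells/well.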

[2] = molecular target: T1, human Cot catalytic domain (30-397 amino acids) (Homo sapiens, UniProt P41279); assay: High Throughput Cot Biochemical Assay (KinEASE TR-FRET); conditions: Cot biochemical HTRF (KinEASE TR-FRET) assay; read-out: IC50 HTRF
T1 construct: Purified recombinant human Cot catalytic domain (30-397 amino acids) was purchased from Cama Biosciences; purchased Cama Biosciences (so in the source)
Outline: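 TR-FRET (KinEASE) read-out: Eu-labelled phospho-specific antibody binds XL665-tagged STK3 peptide (1 μM) phosphorylated by 5 nM human Cot kinase domain (residues 30-397). Reaction at 400 μM ATP, pH 7.0 MOPS buffer with 10 mM MgOAc, 1 mM DTT and 0.1% DMSO.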

T1 sequence (P41279 30-397): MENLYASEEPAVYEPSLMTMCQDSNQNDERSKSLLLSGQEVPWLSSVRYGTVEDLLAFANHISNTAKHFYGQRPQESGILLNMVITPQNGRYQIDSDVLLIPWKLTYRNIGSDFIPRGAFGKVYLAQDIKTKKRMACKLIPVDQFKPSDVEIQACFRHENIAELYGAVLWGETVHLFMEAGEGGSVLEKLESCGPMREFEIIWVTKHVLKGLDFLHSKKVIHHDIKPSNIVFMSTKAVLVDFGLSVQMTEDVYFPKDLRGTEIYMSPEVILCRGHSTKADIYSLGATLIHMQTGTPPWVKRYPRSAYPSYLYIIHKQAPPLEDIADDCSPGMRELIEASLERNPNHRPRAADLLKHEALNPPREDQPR

SMILES | EC50 [1] | IC50 [2]
N#Cc1cnc2c(Cl)cc(N[C@@H](c3ccccc3)c3cn(CCN4CCOCC4)nn3)cc2c1Nc1ccc(F)c(Cl)c1 [Example 737, (S)-8-chloro-4-((3-chloro-4-fluorophenyl)amino)-6-(((1-(2-morpholinoethyl)-1H-1,2,3-triazol-4-yl)(phenyl)methyl)amino)quinoline-3-carbonitrile] | 411 nM | 21 nM
N#Cc1cnc2c(Cl)cc(N[C@@H](c3ccccc3)c3cn(CCO)nn3)cc2c1Nc1ccc(F)c(Cl)c1 [Example 738, (S)-8-chloro-4-((3-chloro-4-fluorophenyl)amino)-6-(((1-(2-hydroxyethyl)-1H-1,2,3-triazol-4-yl)(phenyl)methyl)amino)quinoline-3-carbonitrile] | 274 nM | 7 nM
CC(C)(C)N1CCC(n2cc([C@@H](Nc3cc(Cl)c4ncc(C#N)c(Nc5cccc(Cl)c5F)c4c3)c3ccc(Cl)cc3)nn2)CC1 [Example 739, (S)-6-(((1-(1-(tert-butyl)piperidin-4-yl)-1H-1,2,3-triazol-4-yl)(4-chlorophenyl)methyl)amino)-8-chloro-4-((3-chloro-2-fluorophenyl)amino)quinoline-3-carbonitrile] | 1100 nM | 22 nM
CC(C)(C)N1CCC(n2cc([C@@H](Nc3cc(Cl)c4ncc(C#N)c(Nc5ccc(Cl)cc5)c4c3)c3ccc(Cl)cc3)nn2)CC1 [Example 740, (S)-6-(((1-(1-(tert-butyl)piperidin-4-yl)-1H-1,2,3-triazol-4-yl)(4-chlorophenyl)methyl)amino)-8-chloro-4-((4-chlorophenyl)amino)quinoline-3-carbonitrile] | 5550 nM | 244 nM
Cc1cccc(Nc2c(C#N)cnc3c(Cl)cc(N[C@@H](c4ccc(Cl)cc4)c4cn(C5CCN(C(C)(C)C)CC5)nn4)cc23)c1 [Example 741, (S)-6-(((1-(1-(tert-butyl)piperidin-4-yl)-1H-1,2,3-triazol-4-yl)(4-chlorophenyl)methyl)amino)-8-chloro-4-(m-tolylamino)quinoline-3-carbonitrile] | 1240 nM | 122 nM
Cc1ccc(Nc2c(C#N)cnc3c(Cl)cc(N[C@@H](c4ccc(Cl)cc4)c4cn(C5CCN(C(C)(C)C)CC5)nn4)cc23)cc1 [Example 742, (S)-6-(((1-(1-(tert-butyl)piperidin-4-yl)-1H-1,2,3-triazol-4-yl)(4-chlorophenyl)methyl)amino)-8-chloro-4-(p-tolylamino)quinoline-3-carbonitrile] | 1770 nM | 315 nM
CCN1CC[C@@H](n2cc([C@@H](Nc3cc(Cl)c4ncc(C#N)c(Nc5ccc(F)c(Cl)c5)c4c3)c3ccccc3)nn2)[C@H](F)C1 [Example 743, 8-chloro-4-((3-chloro-4-fluorophenyl)amino)-6-(((S)-(1-((3R,4R)-1-ethyl-3-fluoropiperidin-4-yl)-1H-1,2,3-triazol-4-yl)(phenyl)methyl)amino)quinoline-3-carbonitrile] | 575 nM | 29 nM
N#Cc1cnc2c(Cl)cc(N[C@@H](c3ccccc3)c3cn([C@@H]4CCNC[C@H]4F)nn3)cc2c1Nc1ccc(F)c(Cl)c1 [Example 744, 8-chloro-4-((3-chloro-4-fluorophenyl)amino)-6-(((S)-(1-((3R,4R)-3-fluoropiperidin-4-yl)-1H-1,2,3-triazol-4-yl)(phenyl)methyl)amino) quinoline-3-carbonitrile] | 363 nM | 13 nM
CCN1CC(n2cc([C@@H](Nc3cc(Cl)c4ncc(C#N)c(Nc5ccc(F)c(Cl)c5)c4c3)c3ccccc3)nn2)CC(F)(F)C1 (stereo partly drawn) [Example 745, 8-chloro-4-((3-chloro-4-fluorophenyl)amino)-6-(((1S)-(1-(1-ethyl-5,5-difluoropiperidin-3-yl)-1H-1,2,3-triazol-4-yl)(phenyl)methyl)amino) quinoline-3-carbonitrile] | 615 nM | 70 nM
N#Cc1cnc2c(Cl)cc(N[C@@H](c3ccccc3)c3cn(CC(=O)N4CCOCC4)nn3)cc2c1Nc1ccc(F)c(Cl)c1 [Example 746, (S)-8-chloro-4-((3-chloro-4-fluorophenyl)amino)-6-(((1-(2-morpholino-2-oxoethyl)-1H-1,2,3-triazol-4-yl)(phenyl)methyl)amino) quinoline-3-carbonitrile] | 349 nM | 29 nM
CCN1CC(Cn2cc([C@@H](Nc3cc(Cl)c4ncc(C#N)c(Nc5ccc(F)c(Cl)c5)c4c3)c3ccccc3)nn2)C1 [Example 747, (S)-8-chloro-4-((3-chloro-4-fluorophenyl)amino)-6-(((1-((1-ethylazetidin-3-yl)methyl)-1H-1,2,3-triazol-4-yl)(phenyl)methyl)amino) quinoline-3-carbonitrile] | 110 nM | 4 nM
N#Cc1cnc2c(Cl)cc(N[C@@H](c3ccccc3)c3cn(C4CNCC(F)(F)C4)nn3)cc2c1Nc1ccc(F)c(Cl)c1 (stereo partly drawn) [Example 748, 8-chloro-4-((3-chloro-4-fluorophenyl)amino)-6-(((1S)-(1-(5,5-difluoropiperidin-3-yl)-1H-1,2,3-triazol-4-yl)(phenyl)methyl)amino) quinoline-3-carbonitrile] | 610 nM | 60 nM
CC(C)(C)N1CCC(n2cc([C@@H](Nc3cc(Cl)c4ncc(C#N)c(Nc5ccc(C(F)(F)F)nc5)c4c3)c3ccc(Cl)cc3)nn2)CC1 [Example 750, (S)-6-(((1-(1-(tert-butyl)piperidin-4-yl)-1H-1,2,3-triazol-4-yl)(4-chlorophenyl)methyl)amino)-8-chloro-4-((6-(trifluoromethyl)pyridin-3-yl)amino)quinoline-3-carbonitrile] | 4720 nM | 1890 nM
CC(C)(C)N1CCC(n2cc([C@@H](Nc3cc(Cl)c4ncc(C#N)c(Nc5cccc(C#N)c5)c4c3)c3ccc(Cl)cc3)nn2)CC1 [Example 753, (S)-6-(((1-(1-(tert-butyl)piperidin-4-yl)-1H-1,2,3-triazol-4-yl)(4-chlorophenyl)methyl)amino)-8-chloro-4-((3-cyanophenyl)amino)quinoline-3-carbonitrile] | 1680 nM | 88 nM
CC(C)(C)N1CCC(n2cc([C@@H](Nc3cc(Cl)c4ncc(C#N)c(Nc5ccc(Cl)c(F)c5)c4c3)c3ccc(Cl)cc3)nn2)CC1 [Example 755, (S)-6-(((1-(1-(tert-butyl)piperidin-4-yl)-1H-1,2,3-triazol-4-yl)(4-chlorophenyl)methyl)amino)-8-chloro-4-((4-chloro-3-fluorophenyl)amino)quinoline-3-carbonitrile] | 3200 nM | 201 nM
CC(C)(C)N1CCC(n2cc([C@@H](Nc3cc(Cl)c4ncc(C#N)c(Nc5cc(Cl)cc(Cl)c5)c4c3)c3ccc(Cl)cc3)nn2)CC1 [Example 756, (S)-6-(((1-(1-(tert-butyl)piperidin-4-yl)-1H-1,2,3-triazol-4-yl)(4-chlorophenyl)methyl)amino)-8-chloro-4-((3,5-dichlorophenyl)amino)quinoline-3-carbonitrile] | 2980 nM | 108 nM
CC(C)(C)N1CCC(n2cc([C@@H](Nc3cc(Cl)c4ncc(C#N)c(Nc5cccc(Br)c5)c4c3)c3ccc(Cl)cc3)nn2)CC1 [Example 757, (S)-4-((3-bromophenyl)amino)-6-(((1-(1-(tert-butyl)piperidin-4-yl)-1H-1,2,3-triazol-4-yl)(4-chlorophenyl)methyl)amino)-8-chloroquinoline-3-carbonitrile] | 738 nM | 41 nM
CC(C)(C)N1CCC(n2cc([C@@H](Nc3cc(Cl)c4ncc(C#N)c(Nc5ccccc5Cl)c4c3)c3ccc(Cl)cc3)nn2)CC1 [Example 758, (S)-6-(((1-(1-(tert-butyl)piperidin-4-yl)-1H-1,2,3-triazol-4-yl)(4-chlorophenyl)methyl)amino)-8-chloro-4-((2-chlorophenyl)amino)quinoline-3-carbonitrile] | 1310 nM | 97 nM
CC(C)(C)N1CCC(n2cc([C@@H](Nc3cc(Cl)c4ncc(C#N)c(Nc5ccc(OC(F)(F)F)cc5)c4c3)c3ccc(Cl)cc3)nn2)CC1 [Example 759, (S)-6-(((1-(1-(tert-butyl)piperidin-4-yl)-1H-1,2,3-triazol-4-yl)(4-chlorophenyl)methyl)amino)-8-chloro-4-((4-(trifluoromethoxy)phenyl)amino) quinoline-3-carbonitrile] | 2750 nM | 2140 nM
CC(C)(C)N1CCC(n2cc([C@@H](Nc3cc(Cl)c4ncc(C#N)c(Nc5cc(F)cc(F)c5)c4c3)c3ccc(Cl)cc3)nn2)CC1 [Example 764, (S)-6-(((1-(1-(tert-butyl)piperidin-4-yl)-1H-1,2,3-triazol-4-yl)(4-chlorophenyl)methyl)amino)-8-chloro-4-((3,5-difluorophenyl)amino)quinoline-3-carbonitrile] | 3270 nM | 38 nM
CC(C)(C)N1CCC(n2cc([C@@H](Nc3cc(Cl)c4ncc(C#N)c(Nc5ccc(Cl)c(Cl)c5)c4c3)c3ccc(Cl)cc3)nn2)CC1 [Example 765, (S)-6-(((1-(1-(tert-butyl)piperidin-4-yl)-1H-1,2,3-triazol-4-yl)(4-chlorophenyl)methyl)amino)-8-chloro-4-((3,4-dichlorophenyl)amino)quino1ine-3-carbonitrile] | 1290 nM | 70 nM
CC(C)(C)N1CCC(n2cc([C@@H](Nc3cc(Cl)c4ncc(C#N)c(Nc5ccc(F)cc5)c4c3)c3ccc(Cl)cc3)nn2)CC1 [Example 766, (S)-6-(((1-(1-(tert-butyl)piperidin-4-yl)-1H-1,2,3-triazol-4-yl)(4-chlorophenyl)methyl)amino)-8-chloro-4-((4-fluorophenyl)amino)quinoline-3-carbonitrile] | 1770 nM | 41 nM
